Tested on: AF24-28AC
Experiment: Antibiotic sensitivity of AF24-28AC by the drug sensitive paper method
Format: cell-based, Megamonas funiformis
Conditions: for Resistance / sensitivity of AF24-28AC to the antibiotic: drug sensitive paper method, result in words
Protocol: The sensitivity of AF24-28AC to 20 common antibiotics was tested by the drug sensitive paper method. 100 μl of AF24-28AC bacterial solution cultured to the logarithmic phase was spread plated. Antibiotic susceptibility papers (purchased from Hangzhou Microbial Reagent Co. LTD.) were affixed on the medium surface of plates, cultured at 37° C. for 48 hours, after which the size of inhibition zone was measured.

Row | Molecule | Diameter of inhibition zone (antibiotic susceptibility papers on plates spread with AF24-28AC, 37° C., 48 hours) [cm] | Resistance / sensitivity of AF24-28AC to the antibiotic
1 | CN(C)[C@@H]1C(=O)C(C(N)=O)=C(O)[C@@]2(O)C(=O)C3=C(O)c4c(O)cccc4[C@@](C)(O)[C@H]3C[C@@H]12 [Acheomycin] | 4.2 | 
2 | CCN1CCN(C(=O)N[C@@H](C(=O)N[C@@H]2C(=O)N3C(C(=O)O)=C(CSc4nnnn4C)CS[C@H]23)c2ccc(O)cc2)C(=O)C1=O [Cefoperazone] |  | resistant
3 | Cc1onc(-c2ccccc2)c1C(=O)N[C@@H]1C(=O)N2[C@@H]1SC(C)(C)[C@@H]2C(=O)O [Oxacillin] |  | resistant
4 | Penicillin |  | resistant
